Assay results reported in publication PMC5357792, “Identification of mangiferin as a potential Glucokinase activator by structure-based virtual ligand screening” (Scientific Reports, 2017).

What follows are compounds tested against T1, Glucokinase (GK) (Homo sapiens, UniProt P35557) (assay: microscale thermophoresis with labelled recombinant GK; also coupled G6PDH enzyme activation assay (EC50 ca. […])). Details: read-out: Dissociation constant with GK / Kd.
T1 construct: gene GCK; full-length human glucokinase (GenBank: BC001890.1), C-terminally hexa-histidine tagged
T1 sequence (P35557 1-465): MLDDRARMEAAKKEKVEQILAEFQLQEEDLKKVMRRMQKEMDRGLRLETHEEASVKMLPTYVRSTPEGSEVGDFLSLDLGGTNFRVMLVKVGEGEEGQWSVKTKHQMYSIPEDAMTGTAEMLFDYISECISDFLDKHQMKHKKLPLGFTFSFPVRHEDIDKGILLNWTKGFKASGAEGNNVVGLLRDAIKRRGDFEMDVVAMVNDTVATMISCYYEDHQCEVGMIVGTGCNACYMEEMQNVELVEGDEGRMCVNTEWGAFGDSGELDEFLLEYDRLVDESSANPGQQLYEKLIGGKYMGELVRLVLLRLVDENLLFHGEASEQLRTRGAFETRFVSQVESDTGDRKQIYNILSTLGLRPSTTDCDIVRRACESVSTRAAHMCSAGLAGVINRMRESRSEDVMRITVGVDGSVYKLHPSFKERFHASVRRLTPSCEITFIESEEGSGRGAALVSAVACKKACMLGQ
Type: binding

SMILES | Kd [µM]
O=c1c2cc(O)c(O)cc2oc2cc(O)c([C@@H]3O[C@H](CO)[C@@H](O)[C@H](O)[C@H]3O)c(O)c12 [compound 7, mangiferin] | 472 ± 20.5

The compounds below were run against T1, Glucokinase (GK) (assay: biochemical). Details: not given.
Design: G6PDH-coupled spectrophotometric glucokinase activity, NADPH absorbance at 340 nm, 10 mM glucose, 37 °C
Description: The in vitro efficacy of twelve compounds was assessed in two separate steps: a SC50 assay to evaluate the potency of each compound at a unified compound concentration of 50 μM. Then, we seek to obtain the values of EC50 and kinetic parameters Ka, Vmax of promising compounds, according to a reported method with minor modifications. Briefly, Twelve compounds unified in the same concentration of 50 μM were assayed in a 96-well plate with a final reaction volume of 100 μl. The reaction mixture consisted of 25 mM Hepes (pH 7.5), 10 mM glucose, 1 mM ATP, 4 U/ml G6PDH (Sigma-Aldrich Co. LLC., St. Louis, MO, USA), 1 mM NADP, 2.5 mM MgCl, 50 mM KCl, 2 mM DTT, […] recombinant human glucokinase and test compounds. The whole reaction mixtures were kept under 37 °C for 20 minutes. The increase in the rate of absorbance of NADPH generated in the reactions was monitored kinetically at 340 nm. The values were calculated by comparing with untreated GK. This term is called the efficacy of stimulatory concentration (SC50). Then, the EC50 of promising candidates were determined in the presence of various fixed concentrations of compound 7 (2–300 μM). Values were calculated by fitting enzymatic rates to the Hill equation by using GraphPad Prism 5.01. In order to further investigate the activation effect of the twelve compounds on GK enzymatic activity, the recombinant GK protein had been successfully obtained by genetic engineering method. Evaluation of the twelve hits on enzymatic activity was assessed spectrometrically by a coupled reaction with glucose-6-phosphate dehydrogenase. […] The activation percentage was the GK enzyme activity in each group compared to that of the blank control group. Each compound was assayed triply. The value presents in a column as the mean ± SD (n = 3). *P < 0.05, **P < 0.01, compared to the blank control group.

SMILES | EC50 [µM]
O=c1c2cc(O)c(O)cc2oc2cc(O)c([C@@H]3O[C@H](CO)[C@@H](O)[C@H](O)[C@H]3O)c(O)c12 [compound 7, mangiferin] | 156

Same assay, conditions: untreated GK = 100%; read-out: % of control remaining

SMILES | remaining activity at 50 µM [%]
O=C(Nc1nc(-c2c[nH]c3ccccc23)cs1)c1cnccn1 [compound 1, 1] | 86.1 ± 5.68
O=c1c2cc(O)c(O)cc2oc2cc(O)c([C@@H]3O[C@H](CO)[C@@H](O)[C@H](O)[C@H]3O)c(O)c12 [compound 7, mangiferin] | 126 ± 2.83
CC(O)CNc1nc2ccccc2n1Cc1nc(N)nc(N(C)C)n1 (centres unmarked) [compound 8, 8] | 92 ± 0.96
COc1ccccc1C(=O)Nc1cccc(NC(=O)c2ncc[nH]2)c1 [compound 11, 11] | 75.9 ± 6.72
O=C1NCC(c2ccc(Cl)cc2)Cc2[nH]c(-c3ncc[nH]3)nc21 (centres unmarked) [compound 10, 10] | 94.3 ± 1.49
Cc1sc2ncnc(SCC(=O)Nc3c[nH]ccc3=O)c2c1C [compound 5, 5] | 87.6 ± 5.67
NC(=O)c1coc(-c2csc(NC(=O)c3ccc(Cl)cc3)n2)c1 [compound 2, 2] | 86.5 ± 5.71
Cn1ccc(NC(=O)N(Cc2ccccc2)CC(O)c2ccco2)n1 (centres unmarked) [compound 9, 9] | 82.4 ± 6.72
Oc1ccc(Nc2ncnc3sccc23)cc1CN1CCOCC1 [compound 4, 4] | 37.8 ± 12
Cc1nc(S)sc1CC(=O)Nc1c[nH]ccc1=O [compound 3, 3] | 46.7 ± 1.21
O=C(NCC(c1cccs1)c1c[nH]c2ccccc12)c1ccccn1 (centres unmarked) [compound 6, 6] | 90 ± 3.88

These compounds were tested against T1, Glucokinase (GK) (assay: microscale thermophoresis with labelled recombinant GK). Details: read-out: Dissociation constant with GK / Kd.
Type: binding

SMILES | Kd [µM]
O=C(Nc1ncc(SCCN2CCCC2)s1)[C@]1(c2ccc(S(=O)(=O)C3CC3)cc2)C[C@H]1C1CCCCC1 [LY2608204] | 600 ± 36.1
